Values quoted from earlier work, collected in US5576012A, “Pharmaceutical aqueous formulations containing a sparingly soluble pharmaceutical active compound with a solubilizing polymeric agent” (priority 1990, dated 1996).
Where two headings read alike, the source gives them in different places.

How the values were obtained:
[1] = not given; remark: listed apart in the source

For `OC[C@H]1O[C@@H]2O[C@H]3[C@H](O)[C@@H](O)[C@@H](O[C@H]4[C@H](O)[C@@H](O)[C@@H](O[C@H]5[C@H](O)[C@@H](O)[C@@H](O[C@H]6[C@H](O)[C@@H](O)[C@@H](O[C@H]7[C@H](O)[C@@H](O)[C@@H](O[C@H]8[C@H](O)[C@@H](O)[C@@H](O[C@H]1[C@H](O)[C@H]2O)O[C@@H]8CO)O[C@@H]7CO)O[C@@H]6CO)O[C@@H]5CO)O[C@@H]4CO)O[C@@H]3CO` [β-CD, β-cyclodextrin], the “toxic action on parenteral administration” value (administered parenterally) is given as “nephrotoxic action”.
In the case of `CCO` [ethanol], the Intravasal hemolytic reactions (intravasal) is given as “detectable”.
For `CC(O)CO` (stereo not drawn) [propylene glycol], the Intravasal hemolytic reactions (in vivo) is listed as “detectable”.
For `CC(C)c1cccc(C(C)C)c1O` [propofol, reference compound], the “water-solubility (in words)” value ([1]; active compounds for intravasal use) is given as “too low to dissolve the therapeutic dose in an acceptable volume”.
For `OC[C@H]1O[C@@H]2O[C@H]3[C@H](O)[C@@H](O)[C@@H](O[C@H]4[C@H](O)[C@@H](O)[C@@H](O[C@H]5[C@H](O)[C@@H](O)[C@@H](O[C@H]6[C@H](O)[C@@H](O)[C@@H](O[C@H]7[C@H](O)[C@@H](O)[C@@H](O[C@H]1[C@H](O)[C@H]2O)O[C@@H]7CO)O[C@@H]6CO)O[C@@H]5CO)O[C@@H]4CO)O[C@@H]3CO` [α-CD, α-cyclodextrin], the water-solubility ([1]; cyclodextrins in water) is listed as 17.4%.
In the case of `OC[C@H]1O[C@@H]2O[C@H]3[C@H](O)[C@@H](O)[C@@H](O[C@H]4[C@H](O)[C@@H](O)[C@@H](O[C@H]5[C@H](O)[C@@H](O)[C@@H](O[C@H]6[C@H](O)[C@@H](O)[C@@H](O[C@H]7[C@H](O)[C@@H](O)[C@@H](O[C@H]8[C@H](O)[C@@H](O)[C@@H](O[C@H]9[C@H](O)[C@@H](O)[C@@H](O[C@H]1[C@H](O)[C@H]2O)O[C@@H]9CO)O[C@@H]8CO)O[C@@H]7CO)O[C@@H]6CO)O[C@@H]5CO)O[C@@H]4CO)O[C@@H]3CO` [γ-CD, γ-cyclodextrin], the water-solubility ([1]; water) is listed as 25.8%.
